ChEMBL document CHEMBL4400545 (Bioorg Med Chem, 2019)

Columns and labels:
[1] = target: Sodium- and chloride-dependent GABA transporter 1 (Mus musculus) (UniProt P31648); assay: Inhibition of mouse GAT-1 assessed as percentage of remaining specific binding of NO711 at 1 uM after 4 hrs by LC-ESI-MS/ms analysis relative to control
[2] = target: Sodium- and chloride-dependent GABA transporter 1 (Mus musculus) (UniProt P31648); assay: Inhibition of mouse GAT-1 assessed as percentage of remaining specific binding of NO711 at 100 nM after 4 hrs by LC-ESI-MS/ms analysis relative to control

| Structure (SMILES) | Activity [1] | Activity [2] |
| --- | --- | --- |
| CC(/C=N/OCCN1CCCC(C(=O)O)C1)(CCC#N)c1ccccc1 (racemic) | 7% | 48% |
| Cc1onc(-c2ccc(Cl)cc2)c1/C=N/OCCN1CCCC(C(=O)O)C1 (racemic) | 7% | 48% |
| O=C(O)C1CCCN(CCO/N=C/C(c2ccccc2)c2ccccc2)C1 (racemic) | 41% | 20% |
| O=C(O)C1CCCN(CCO/N=C/c2c[nH]nc2-c2ccc(F)cc2)C1 (racemic) | 7% | 48% |
| O=C(O)C1CCCN(CCO/N=C/c2ccc(-c3ccccc3)cc2)C1 (racemic) | 80% | 20% |
| O=C(O)C1CCCN(CCO/N=C/c2ccc(-c3ccccc3OC(F)(F)F)o2)C1 (racemic) | 84% | Below limit of detection |
| O=C(O)C1CCCN(CCO/N=C/c2cccc(-c3ccccc3)c2)C1 (racemic) | 87% | 20% |
| O=C(O)C1CCCN(CCO/N=C/c2ccccc2-c2c(F)cccc2F)C1 (racemic) | 39% | 17% |
| O=C(O)C1CCCN(CCO/N=C/c2ccccc2-c2ccc(Cl)cc2)C1 (racemic) | Below limit of detection | 38% |
| O=C(O)C1CCCN(CCO/N=C/c2ccccc2-c2ccc(F)cc2)C1 (racemic) | Below limit of detection | 38% |
| O=C(O)C1CCCN(CCO/N=C/c2ccccc2-c2ccc3ccccc3c2)C1 (racemic) | 89% | Below limit of detection |
| O=C(O)C1CCCN(CCO/N=C/c2ccccc2-c2cccc(Cl)c2)C1 (racemic) | Below limit of detection | 38% |
| O=C(O)C1CCCN(CCO/N=C/c2ccccc2-c2cccc(F)c2F)C1 (racemic) | 39% | 17% |
| O=C(O)C1CCCN(CCO/N=C/c2ccccc2-c2ccccc2)C1 (racemic) | 47% | 20% |
| O=C(O)C1CCCN(CCO/N=C/c2ccccc2-c2ccccc2F)C1 (racemic) | 25% | Below limit of detection |
| O=C(O)C1CCCN(CCO/N=C/c2ccccc2-n2cccn2)C1 (racemic) | 37% | – |
| O=C(O)C1CCCN(CCO/N=C/c2cccn2-c2ccc(C(F)(F)F)cc2)C1 (racemic) | 91% | Below limit of detection |

Second part, the compound after the results:

| Activity [1] | Activity [2] | Structure (SMILES) |
| --- | --- | --- |
| 58% | 16% | O=C(O)C1CCCN(CCO/N=C/c2cc(F)ccc2-c2ccccc2)C1 (racemic) |
| 41% | 16% | O=C(O)C1CCCN(CCO/N=C/c2cc(F)ccc2-c2ccccc2Cl)C1 (racemic) |
| 42% | 16% | O=C(O)C1CCCN(CCO/N=C/c2cc(F)ccc2-c2ccccc2F)C1 (racemic) |
| 83% | Below limit of detection | O=C(O)C1CCCN(CCO/N=C/c2ccc(-c3ccc(C(F)(F)F)cc3Cl)o2)C1 (racemic) |
| 71% | 17% | O=C(O)C1CCCN(CCO/N=C/c2ccccc2-c2cc(F)ccc2F)C1 (racemic) |
| 24% | 17% | O=C(O)C1CCCN(CCO/N=C/c2ccccc2-c2ccc(Cl)cc2F)C1 (racemic) |
| Below limit of detection | 38% | O=C(O)C1CCCN(CCO/N=C/c2ccccc2-c2cccc(F)c2)C1 (racemic) |
| 26% | Below limit of detection | O=C(O)C1CCCN(CCO/N=C/c2ccccc2-c2ccccc2Cl)C1 (racemic) |
| 7% | 48% | O=C(O)C1CCCN(CCO/N=C/c2ccccc2-c2cccs2)C1 (racemic) |
| 31% | Below limit of detection | O=C(O)C1CCCN(CCO/N=C/c2cccnc2-c2ccc(Cl)cc2Cl)C1 (racemic) |
| 24% | Below limit of detection | O=C(O)C1CCCN(CCO/N=C/c2sccc2-c2ccc(F)cc2Cl)C1 (racemic) |
